Results from the NIST ThermoML archive (doi:10.1016/j.jct.2013.03.012).
± gives the expanded uncertainty stated by the source.

Settings: for mass density: 101.33 kPa, Liquid, Levitation methods

[Ti] [titanium]
Settings | mass density [kg/m3]
1350 K | 4235 ± 40
1400 K | 4223 ± 40
1450 K | 4211 ± 40
1500 K | 4200 ± 40
1550 K | 4188 ± 40
1600 K | 4176 ± 40
1650 K | 4164 ± 40
1668 K | 4160 ± 40
1700 K | 4152 ± 40

Settings | Normal melting temperature [°C]
Crystal, Heating curve in electrostatic levitation apparatus | 1668.1 ± 2
